Key:
[1] = Pharmacokinetics after IV or oral administration in dog; assay type: in vivo; details: Beagle dog M; for AUC(0-inf) / Cmax / Tmax / half-life / bioavailability: male, plasma
From the text: (§1) The pharmacokinetics of compounds of the invention were compared in mouse, rat and dog by either intravenous or oral administration in various formulations including drug powder in capsules or in combination with generally recognized as safe (GRAS) excipients. After administration in animals, blood samples were collected at the appropriate time points and plasma was obtained for bioanalysis. Compounds were extracted by protein precipitation and analyzed by LC-UV or LC-MS/MS. PK analysis was performed by noncompartmental analysis using WinNonlin. Oral bioavailability (% F) was calculated based on AUC of Compound 1.
(§2) Blood was collected into heparinized tubes that contained dithioreitol (DTT; ˜2 mg/mL) at each time point. After centrifugation plasma was transferred to a new tube that contained DMSO (Plasma:DMSO ration 2:1 for rat/mouse, 9:1 for dog).
(§3) The pharmacokinetic parameters for compounds of the invention were determined from the plasma concentration data using the Noncompartmental Analysis module in WinNonlin, version 5.0 (Pharsight Corporation).

[2] = Pharmacokinetics after IV or oral administration in mouse; assay type: in vivo; details: female, plasma, CD-1 mouse F
From the text: as §1, §2, §3

Aqueous solubility = assay type: physicochemical; details: water
[3] = Pharmacokinetics after IV or oral administration in rat; assay type: in vivo, SD rat; details: for AUC(0-inf) / Cmax / Tmax / half-life / bioavailability: male, Sprague-Dawley, plasma
From the text: as §1, §2, §3

[4] = beagle, dog, iv, 10 mg/kg, 1 h IV infusion, EES (sol'n)
[5] = beagle, dog, po, 50 mg/kg, TPGS/PEG400 (sol'n)
[6] = beagle, dog, po, 50 mg/kg, capsule (powder), 50 mg/kg as Compound 1 (free acid)
[7] = beagle, dog, po, 50 mg/kg, nanoparticles (colloidal dispersion)
[8] = IV bolus, EES (sol'n), 10 mg/kg
[9] = PO, TPGS/PEG400 (sol'n), 100 mg/kg
[10] = rat, iv, 25 mg/kg, SD rat M, IV bolus, EES (sol'n)
[11] = rat, iv, 50 mg/kg, SD rat M, IV bolus, Phospholipid
[12] = rat, iv, 80 mg/kg, SD rat M, IV bolus, HP-β-CD/saline
[13] = rat, iv, 80 mg/kg, SD rat M, IV bolus, Lyophilized HP-β-CD/saline
[14] = rat, other: PI, 80 mg/kg, SD rat M, route PI, Lyophilized HP-β-CD/saline, 80 mg/kg
[15] = rat, po, 50 mg/kg, SD rat M, 0.5% MC (suspension)
[16] = rat, po, 50 mg/kg, SD rat M, Phospholipid
[17] = rat, po, 50 mg/kg, SD rat M, TPGS/PEG400 (sol'n)
[18] = rat, po, 50 mg/kg, SD rat M, nanoparticles (colloidal dispersion)
[19] = rat, po, 80 mg/kg, SD rat M, HP-β-CD/saline
[20] = rat, PO, nanoparticles (colloidal dispersion) vs 0.5% methylcellulose suspension
[21] = rat, po, 50 mg/kg, SD rat M, capsule (powder), 50 mg/kg as Compound 1 (free acid)
[22] = rat, iv, 25 mg/kg, SD rat M, IV bolus, Saline
[23] = rat, po, 50 mg/kg, SD rat M, Saline
[24] = PO, capsule (powder), 50 mg/kg as Compound 1 (free acid)

CN(NC(=O)CC(=O)NN(C)C(=S)c1ccccc1)C(=S)c1ccccc1 [Compound 1]
AUC(0-inf) [1, 4]: 25800 ng·h/mL
Cmax [1, 4]: 11600 ng/mL
Tmax [1, 4]: 60 min
half-life [1, 4]: 72 min
AUC(0-inf) [1, 5]: 87500 ng·h/mL
Cmax [1, 5]: 38100 ng/mL
Tmax [1, 5]: 24 min
half-life [1, 5]: 132 min
bioavailability ([1]; beagle, dog, po, 50 mg/kg, TPGS/PEG400 (sol'n), reference Compound 1 IV infusion): 68%
AUC(0-inf) [1, 6]: 6520 ng·h/mL
Cmax [1, 6]: 1330 ng/mL
Tmax [1, 6]: 120 min
half-life [1, 6]: 150 min
bioavailability ([1]; beagle, dog, po, 50 mg/kg, capsule (powder), 50 mg/kg as Compound 1 (free acid), reference Compound 1 IV infusion, based on AUC of Compound 1): < 5%
AUC(0-inf) [1, 7]: 57500 ng·h/mL
Cmax [1, 7]: 16800 ng/mL
Tmax [1, 7]: 48 min
half-life [1, 7]: 288 min
bioavailability ([1]; beagle, dog, po, 50 mg/kg, nanoparticles (colloidal dispersion), reference Compound 1 IV infusion): 44.6%
AUC(0-inf) [2, 8]: 3950 ng·h/mL
Cmax [2, 8]: 6500 ng/mL
Tmax [2, 8]: 4.98 min
half-life [2, 8]: 54 min
AUC(0-inf) [2, 9]: 8640 ng·h/mL
Cmax [2, 9]: 12400 ng/mL
Tmax [2, 9]: 15 min
half-life [2, 9]: 60 min
bioavailability ([2]; PO, TPGS/PEG400 (sol'n), 100 mg/kg, reference Compound 1 IV bolus): 21.9%
solubility (Aqueous solubility): < 0.1 mg/mL
AUC(0-inf) [3, 10]: 9270 ng·h/mL
Cmax [3, 10]: 29000 ng/mL
Tmax [3, 10]: 4.98 min
half-life [3, 10]: 102 min
AUC(0-inf) [3, 11]: 29700 ng·h/mL
Cmax [3, 11]: 95300 ng/mL
Tmax [3, 11]: 4.98 min
half-life [3, 11]: 54 min
AUC(0-inf) [3, 12]: 23700 ng·h/mL
Cmax [3, 12]: 58800 ng/mL
Tmax [3, 12]: 4.98 min
half-life [3, 12]: 48 min
AUC(0-inf) [3, 13]: 25700 ng·h/mL
Cmax [3, 13]: 63800 ng/mL
Tmax [3, 13]: 4.98 min
half-life [3, 13]: 24 min
AUC(0-inf) [3, 14]: 5190 ng·h/mL
Cmax [3, 14]: 2550 ng/mL
Tmax [3, 14]: 15 min
bioavailability [3, 14]: 21.3%
half-life [3, 14]: 138 min
AUC(0-inf) [3, 15]: 1220 ng·h/mL
Cmax [3, 15]: 280 ng/mL
Tmax [3, 15]: 30 min
half-life [3, 15]: 192 min
bioavailability ([3]; rat, po, 50 mg/kg, SD rat M, 0.5% MC (suspension), reference Compound 1 IV bolus): 6.6%
AUC(0-inf) [3, 16]: 3790 ng·h/mL
Cmax [3, 16]: 2050 ng/mL
Tmax [3, 16]: 15 to 30 min
bioavailability [3, 16]: 8.8%
half-life [3, 16]: 54 min
AUC(0-inf) [3, 17]: 2770 ng·h/mL
Cmax [3, 17]: 1410 ng/mL
Tmax [3, 17]: 18 min
half-life [3, 17]: 126 min
bioavailability ([3]; rat, po, 50 mg/kg, SD rat M, TPGS/PEG400 (sol'n), reference Compound 1 IV bolus): 14.9%
AUC(0-inf) [3, 18]: 2370 ng·h/mL
Cmax [3, 18]: 1070 ng/mL
Tmax [3, 18]: 18 min
half-life [3, 18]: 186 min
bioavailability ([3]; rat, po, 50 mg/kg, SD rat M, nanoparticles (colloidal dispersion), reference Compound 1 IV bolus): 12.8%
AUC(0-inf) [3, 19]: 4330 ng·h/mL
Cmax [3, 19]: 2210 ng/mL
Tmax [3, 19]: 15 to 30 min
bioavailability [3, 19]: 17.5%
half-life [3, 19]: 72 min
AUC after nanoparticles compared with the suspension [3, 20]: higher
Cmax after nanoparticles compared with the suspension [3, 20]: higher

CN(/N=C(\[O-])C/C([O-])=N/N(C)C(=S)c1ccccc1)C(=S)c1ccccc1.[Na+].[Na+] [Compound 19]
% F ([1]; PO, capsule (powder), 50 mg/kg as Compound 1 (free acid), reference Compound 1 IV infusion, based on AUC of Compound 1, 50 mg/kg): 80.2%
AUC(0-inf) [1, 6]: 103000 ng·h/mL
Cmax [1, 6]: 40400 ng/mL
Tmax [1, 6]: 48 min
half-life [1, 6]: 126 min
solubility (Aqueous solubility): ~50 mg/mL
% F ([3]; SD rat M, PO, capsule (powder), 50 mg/kg as Compound 1 (free acid), reference Compound 1 IV bolus, based on AUC of Compound 1, 50 mg/kg): 7.5%
AUC(0-inf) [3, 21]: 1410 ng·h/mL
Cmax [3, 21]: 640 ng/mL
Tmax [3, 21]: 36 min
half-life [3, 21]: 234 min
bioavailability ([3]; rat, po, 50 mg/kg, SD rat M, capsule (powder), 50 mg/kg as Compound 1 (free acid), reference Compound 1 IV bolus, based on AUC of Compound 1): 5.7%

CN(NC(=O)CC(=O)NN(C)C(=S)c1ccccc1)C(=S)c1ccccc1 [Compound 22]
bioavailability ([3]; SD rat M, PO, Saline, 50 mg/kg): 10.5%
AUC(0-inf) [3, 22]: 11600 ng·h/mL
Cmax [3, 22]: 39100 ng/mL
half-life [3, 22]: 222 min
AUC(0-inf) [3, 23]: 4760 ng·h/mL
Cmax [3, 23]: 2400 ng/mL
Tmax [3, 23]: 37.8 min
half-life [3, 23]: 150 min

CN(NC(=O)CC(=O)NN(C)C(=S)c1ccccc1)C(=S)c1ccccc1 [Compound 26]
AUC(0-inf) [1, 24]: 45600 ng·h/mL
Cmax [1, 24]: 19700 ng/mL
Tmax [1, 24]: 60 min
half-life [1, 24]: 180 min
AUC(0-inf) [3, 21]: 1080 ng·h/mL
Cmax [3, 21]: 250 ng/mL
Tmax [3, 21]: 54 min
half-life [3, 21]: 222 min

— patent publication US8618170B2, “Oral formulations of bis(thiohydrazide amides)” (Synta Pharmaceuticals Corp., priority 2007, dated 2013)
